The text below walks through data of patent US4451465A, “Anti-obesity agents” (John Wyeth & Brother Ltd., priority 1981, dated 1984).

The subject of data set [1] is noradrenaline (NA) uptake in rat brown adipose tissue (BAT). Kind of data set: inhibition of noradrenaline uptake in BAT. Type of data set: cell-based, rat (adult male Sprague-Dawley). As to conditions: for IC50: mean ± S.E. mean of 6 experiments, rat BAT. The method, then:
In one procedure for testing for potential thermogenic activity the compounds are tested for their ability to inhibit noradrenaline uptake in rat brown adipose tissue (BAT). […] In another procedure for testing for thermogenic activity the compounds are investigated for their effect on the activity of sodium potassium activated, magnesium dependent adenosinetriphosphatase (Na^+, K^+ -ATPase) in rat BAT fractions.
In the above mentioned procedures adult male Sprague-Dawley rats were used. Homogenates of BAT were prepared by homogenising interscapular BAT. Microsomal material was separated by centrifugation of the BAT homogenate. […] Adenosinetriphosphate activities were measured by monitoring the release of inorganic phosphate from ATP. Na^+, K^+ -ATPase was calculated as the difference between total and sodium ATPase.

For data set [2], the system named is noradrenaline (NA) uptake into brain slices. As to the kind of experiment: inhibition of noradrenaline uptake in brain slices. It is filed as cell-based, rat (adult male Sprague-Dawley). Conditions: mean ± S.E. mean of 6 experiments; rat brain slices. How it is done:
(§1) In one procedure for testing for potential thermogenic activity the compounds are tested for their ability to inhibit noradrenaline uptake in rat brown adipose tissue (BAT). Compounds that have a specific thermogenic effect without having undesirable central effects should inhibit BAT noradrenaline (NA) uptake at lower concentrations than those required to inhibit corresponding NA uptake in the brain. In another procedure for testing for thermogenic activity the compounds are investigated for their effect on the activity of sodium potassium activated, magnesium dependent adenosinetriphosphatase (Na^+, K^+ -ATPase) in rat BAT fractions.
(§2) In the above mentioned procedures adult male Sprague-Dawley rats were used. Homogenates of BAT were prepared by homogenising interscapular BAT. Microsomal material was separated by centrifugation of the BAT homogenate. Measurement of NA uptake into BAT and brain slices was carried out using radiolabelled noradrenaline (based upon the procedure of Sugden, Br. J. Pharmac., 1974,51, 467-469). Adenosinetriphosphate activities were measured by monitoring the release of inorganic phosphate from ATP. Na^+, K^+ -ATPase was calculated as the difference between total and sodium ATPase.

The target of data set [3] is BAT homogenate Na^+, K^+ -ATPase. As to the kind of experiment: stimulation of Na^+, K^+ -ATPase in BAT homogenate. It is filed as biochemical, rat (adult male Sprague-Dawley). As to conditions: for IC50: homogenate, read-out: IC50 for stimulation (to 50% maximum) of BAT Na^+,K-ATP-ase, homogenate. How it is done:
as §1, §2

The target in data set [4] is BAT microsomal Na^+, K^+ -ATPase. Kind of data set: stimulation of Na^+, K^+ -ATPase in BAT microsomal fraction. It is filed as biochemical, rat (adult male Sprague-Dawley). The method, then: as §1, §2
In data set [5] the test system is male rats. Kind of data set: chronic (28 day) administration to male rats: body weight and food intake. It is filed as in vivo, rat. Conditions: 28 days. The source says: The anti-obesity activity of (±)-2,3,4,10-tetrahydro-3,3-dimethyl-10-phenylpyrimido[1,2-a]indol-10-ol has been confirmed by chronic (28 day) administration to male rats. The animals were fed on a standard pelleted diet and the active agent was introduced into the water supply. Body weight, food and water intake and behaviour were monitored over the next four weeks.

In data set [6] the test system is brown adipose tissue. As to the kind of experiment: thermogenic activity (pharmacological testing). Conditions: compared with corresponding (+)-enantiomers. The arrangement: species or system rat. The method, then:
as §1, §2

In data set [7] the test system is rats. As to the kind of experiment: resting metabolic rate (resting oxygen consumption) in rats. It is filed as in vivo, rat. An excerpt: (§3) It is also known that there is a good correlation between BAT homogenate Na^+, K^+ -ATPase activity and the resting metabolic rate (see, for example, Rothwell, Stock and Wyllie, Biochem. Pharmacol., 1981, 30, 1709-1712) and those compounds, such as the agents of the present invention that activate BAT Na^+ K^+ -ATPase activity are indicated as useful as thermogenic agents and can be used in the treatment of obesity.

For data set [8], the system named is rats. As to the kind of experiment: signs of CNS arousal in rats. Type of data set: in vivo, rat. Conditions: dosages as high as 30 mg/kg p.o.
From the text: as §3

A word on the IC50: it is the point on the concentration scale where inhibition reaches its midpoint. For `CC1(C)CN=C2N(C1)c1ccccc1C2(O)c1ccccc1` (racemic) [(±), (±)-2,3,4,10-tetrahydro-3,3-dimethyl-10-phenylpyrimido[1,2-a]indol-10-ol], the figures for the IC50 in data set [1], in data set [2] and in data set [3] were 28 nM, 3400 nM and 43 nM, respectively. In addition, the “IC50 for stimulation (to 50% maximum) of BAT Na^+,K-ATP-ase, microsomal fraction” value in data set [4] is on record as “none at 10^-4”. For the same molecule, the “weight gain compared to controls” value in data set [5] (3.5 mg/kg/day in water supply) and in data set [5] (6.5 mg/kg/day in water supply) was “reduced weight gain” in each case. Besides, in data set [5] (10.8 mg/kg/day in water supply), the body weight result is “weight loss”. For the same molecule, in data set [5] (3.5, 6.5 and 10.8 mg/kg/day in water supply), the food intake result is “no significant effect on food intake”.

In the case of `CC1(C)CN=C2N(C1)c1ccccc1C2(O)c1ccccc1` (single isomer, unassigned; (-)) [(-), (-)-2,3,4,10-Tetrahydro-3,3-dimethyl-10-phenylpyrimido[1,2-a]indol-10-ol], the IC50 in data set [1] is 18 nM; in data set [2], 2400 nM; in data set [3] it was 32 nM. Further, the “IC50 for stimulation (to 50% maximum) of BAT Na^+,K-ATP-ase, microsomal fraction” value in data set [4] is reported as “none at 10^-4”. Moreover, in data set [6], the “activity as thermogenic agents, (-) versus (+)-enantiomers” value is given as “more active, as thermogenic agents, than the corresponding (+)-enantiomers”.

`CC1(C)CN=C2N(C1)c1ccccc1C2(O)c1ccccc1` (stereo not drawn) [compound of the invention, 2,3,4,10-tetrahydro-3,3-dimethyl-10-phenylpyrimido[1,2-a]indol-10-ol]: the “potency in inhibiting NA uptake into BAT versus brain slices” value in data set [1] (BAT compared with brain slices) was “considerably more potent in inhibiting NA uptake into BAT than into brain slices”. For the same molecule, in data set [3] (BAT homogenate), the “stimulation of homogenate Na^+, K^+ -ATPase” value is “significant stimulation”. Further, in data set [4] (BAT microsomal), the “direct stimulation of BAT microsomal Na^+, K^+ -ATPase” value was “did not directly stimulate”. The “resting metabolic rate (resting oxygen consumption)” value in data set [7] is “increases the resting metabolic rate”. Besides, the “signs of CNS arousal” value in data set [8] is “did not produce signs of CNS arousal”.
